Entries after “also recorded” stand apart in the source; their conditions may differ.

The test system of series [1] is AGS tumor cell line. As to the kind of experiment: In vitro killing of AGS tumor cells, AnnexinV/DAPI flow cytometry. Format: cell-based, human. As to conditions: doxorubicin 1.2 μM or cisplatin 100 μM 48 h; Kadcyla 7 μg/ml 72 h. On the technique in general: Flow cytometry measures light scatter and fluorescence of single cells or particles in a stream.
Series [2] concerns AGS tumor cell line. Nature of the series: Cell surface exposure of ICD markers CRT, HSP70, HSP90 on early apoptotic AGS cells (flow cytometry). Format: cell-based, human. The conditions noted are these: doxorubicin 1.2 μM, cisplatin 100 μM 48 h vs Kadcyla 7 μg/ml 72 h. The protocol: The cells are collected and washed twice with PBS. The cells are then incubated for 30 min with primary antibody diluted in cold blocking buffer (2% fetal bovine serum in PBS), followed by washing and incubation with an […] monoclonal secondary antibody in blocking solution. Each sample was then analyzed using a FACScan Aria (BD Bioscience). Cell surface expression of HSP70, HSP90 and CRT is analyzed on non-permeabilized annexin V-positive/DAPI-negative cells.
The expression of ICD markers Hsp70, Hsp90 and CRT as well as NK cells ligands was measured by flow cytometry on these early apoptotic (AnnexinV^+/DAPI^−) cell populations using anti-calreticulin antibody (Abcam, USA), anti-HSP70 (R&D Systems, USA), anti-HSP90 (Enzo Life Sciences, USA). APC AffiniPure F(ab′)2 Fragment Goat Anti-Mouse (Jackson ImmunoResearch) was used as a secondary antibody.

For series [3], the system named is huHER2/EMT-6 tumors. Nature of the series: Orthotopic huHER2/EMT-6 breast cancer model in vivo. As to conditions: RLI-15 1 mg/kg s.c. days 15-18, Kadcyla 15 mg/kg i.v. days 0 and 7. Also on record: species or system Balb/c AnN mice. As to the method: The study was initiated when the initial mean tumor volume among individual groups reached 140 mm^3. […] RLI-15 was administered in 4 sequential doses on study days 15-18 to amplify the numbers and activate immune cells. The antitumor efficacy was evaluated on the level of absolute tumor volume change. Safety has been monitored by body weight loss in individual animals. HER2 expression in individual tumors was analyzed using HercepTest™ (Dako) at the endpoint to map for potential heterogeneity of the model (staining was performed according to the instructions given by the manufacturer).

Series [4] relates to CD3-CD56+ cells (NK cells) of human PBMCs. Nature of the series: In vitro activation of NK cells: RLI-15 treated PBMCs co-incubated with treated AGS tumor cells. Format: cell-based. The protocol: As controls non-treated tumor cells were incubated with non-treated PBMC (KadNT in the ADC group) and non-treated tumor cells were incubated with RLI-15 treated PBMC (KadNT in the RLI+ADC group).

The conditions of series [5]: in vivo; cited from earlier work.

On to `N.N.[Cl][Pt][Cl]` [cisplatin], for which the “induction of early apoptosis compared with Kadcyla” value in series [1] is listed as “equally”. Further, in series [2], the “mean fluorescent intensity (MFI) of ICD markers compared with Kadcyla” value is listed as “stronger induction”.
Regarding `COc1cccc2c1C(=O)c1c(O)c3c(c(O)c1C2=O)C[C@@](O)(C(=O)CO)C[C@@H]3O[C@H]1C[C@H](N)[C@H](O)[C@H](C)O1` [doxorubicin], the “induction of early apoptosis compared with Kadcyla” value in series [1] is listed as “even better suitable to induce early apoptosis”. In series [2], the “mean fluorescent intensity (MFI) of ICD markers compared with Kadcyla” value is on record as “about equal”.
For the molecule “RLI-15: receptor-linker-interleukin fusion protein of the human IL-15Rα sushi+ fragment with the human IL-15 (SEQ ID NO: 9)”, the “tumor volume at the end of the study” value in series [3] was “intermediate tumor volume increase”. Moreover, the “complete tumor eradication / complete and durable responses” value in series [3] (groups of 8 mice) is listed as 2 out of 8. Also, in series [4] (PBMCs +/- 2.5 ng/ml RLI-15 72 h, AGS cells +/- Kadcyla 72 h, 10:1, 4 h), the “proliferation of CD3-CD56+ NK cells” value is reported as “increase of total number of CD3−CD56^+ cells; also recorded: strong proliferation; also recorded: increase of total number of CD3^−CD56^+ cells”. Further, the “% of IFNγ+ NK cells” value in series [4] (PBMCs +/- 2.5 ng/ml RLI-15 72 h, AGS cells treated with Kadcyla 5-10 μg/ml 72 h, 10:1, 4 h) is reported as “only moderate”. Also, the “% of CD107a+ cells, KadNT group” value in series [4] (RLI-15 treated PBMC with non-treated tumor cells) is listed as below 40%.
Usually half-life stands for how long it takes for the measured level to halve. With Todelvy, in series [5], the half-life is on record as 16 h.

The values above are taken from patent US20240350589A1, “IL-2/IL-15RBETAGAMMA AGONIST COMBINATION WITH ANTIBODY-DRUG CONJUGATES FOR TREATING CANCER” (Cytune Pharma, priority 2021, published 2024).
